In patent US8937189B2, “Tri-substituted 2-benzhydryl-5-benzylamino-tetrahydro-pyran-4-ol and 6-benzhydryl-4-benzylamino-tetrahydro-pyran-3-ol analogues, and novel 3,6-disubstituted pyran derivatives” (Wayne State University, priority 2004, dated 2015):
Structures can show the parent of a compound that is named as a salt.

What was measured:
rat NET = assay: Inhibition of [3H]nisoxetine binding to NET; conditions: Table 3; selectivity ratio of IC50 values
Procedure: (§1) Briefly, rat striatum was the source for DAT, and cerebral cortex for SERT and NET. […] Test compounds were dissolved in dimethyl sulfoxide (DMSO) and diluted out in 10% (v/v) DMSO. […] At lease five triplicate concentrations of each test compound were studied, spaced evenly around the IC50 value. For DAT uptake assays, uptake of 50 nM [^3H]DA into rat striatal synaptosomes was measured exactly as described by us previously. Briefly, rat striatal P2 membrane fractions were incubated with test compounds for 8 min followed by the additional presence of [^3H]DA for 4 min at 25?. […] Construction of inhibition curves and dissolvement of test compounds were as described above.

rat DAT = target: T1, rat DAT (Rattus norvegicus, UniProt P23977); assay: Inhibition of [3H]WIN 35,428 binding to DAT
T1 construct: rat striatum was the source for DAT, and cerebral cortex for SERT and NET; from tissue; host or cells: rat striatum (P2 membrane fractions / synaptosomes for uptake)
Procedure: as §1

DAT = target: T2, DAT (Rattus norvegicus, UniProt P23977); assay: Inhibition of [3H]DA uptake by DAT into rat striatal synaptosomes; type: biochemical; conditions: DAT binding vs DA uptake
T2 construct: rat striatum was the source for DAT, and cerebral cortex for SERT and NET; from tissue; host or cells: rat striatum (P2 membrane fractions / synaptosomes for uptake)
Procedure: as §1

NET = target: T3, NET (Rattus norvegicus, UniProt Q63380); assay: Inhibition of [3H]NE uptake by NET; type: biochemical; conditions: text summary of Table 4
T3 construct: from tissue

SERT = target: T4, SERT (Rattus norvegicus, UniProt P31652); assay: Inhibition of [3H]5-HT uptake by SERT; type: biochemical; conditions: text summary of Table 4
T4 construct: from tissue

rat SERT = target: T5, rat SERT (Rattus norvegicus, UniProt P31652); assay: Inhibition of [3H]citalopram binding to SERT
T5 construct: rat striatum was the source for DAT, and cerebral cortex for SERT and NET; from tissue; host or cells: rat cerebral cortex
Procedure: as §1

T4 sequence (P31652 whole entry): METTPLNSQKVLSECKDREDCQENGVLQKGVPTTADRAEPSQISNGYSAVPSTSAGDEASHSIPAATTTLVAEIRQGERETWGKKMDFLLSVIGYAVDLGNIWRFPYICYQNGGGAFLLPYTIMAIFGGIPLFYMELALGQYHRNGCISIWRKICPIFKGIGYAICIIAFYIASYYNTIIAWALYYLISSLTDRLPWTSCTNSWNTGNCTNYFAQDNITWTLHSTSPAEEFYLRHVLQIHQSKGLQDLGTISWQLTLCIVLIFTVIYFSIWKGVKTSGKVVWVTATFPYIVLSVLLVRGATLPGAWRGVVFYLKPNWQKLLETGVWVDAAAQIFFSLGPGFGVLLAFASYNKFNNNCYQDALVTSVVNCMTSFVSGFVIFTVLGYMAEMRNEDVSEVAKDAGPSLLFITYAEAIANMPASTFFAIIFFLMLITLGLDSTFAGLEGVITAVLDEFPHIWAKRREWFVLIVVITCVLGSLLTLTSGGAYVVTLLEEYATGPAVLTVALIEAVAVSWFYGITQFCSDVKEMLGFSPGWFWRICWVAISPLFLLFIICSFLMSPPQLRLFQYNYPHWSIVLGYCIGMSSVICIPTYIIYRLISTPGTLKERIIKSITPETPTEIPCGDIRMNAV
T3 sequence (Q63380 1-617): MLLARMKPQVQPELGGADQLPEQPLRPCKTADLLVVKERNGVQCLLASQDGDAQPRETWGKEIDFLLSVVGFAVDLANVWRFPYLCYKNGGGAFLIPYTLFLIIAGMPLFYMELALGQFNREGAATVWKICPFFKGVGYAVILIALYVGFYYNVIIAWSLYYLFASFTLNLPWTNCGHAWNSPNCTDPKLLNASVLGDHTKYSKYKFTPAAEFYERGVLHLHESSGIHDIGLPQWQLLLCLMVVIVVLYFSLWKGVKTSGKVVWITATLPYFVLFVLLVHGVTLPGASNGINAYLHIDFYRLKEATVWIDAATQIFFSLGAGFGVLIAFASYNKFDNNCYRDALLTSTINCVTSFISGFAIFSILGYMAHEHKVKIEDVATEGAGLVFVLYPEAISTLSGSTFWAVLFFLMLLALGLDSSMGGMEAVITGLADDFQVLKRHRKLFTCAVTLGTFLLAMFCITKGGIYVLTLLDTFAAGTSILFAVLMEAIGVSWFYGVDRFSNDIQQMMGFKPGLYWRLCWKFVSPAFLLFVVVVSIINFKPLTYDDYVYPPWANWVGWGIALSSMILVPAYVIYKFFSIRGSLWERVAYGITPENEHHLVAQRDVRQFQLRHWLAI
T1 sequence (P23977 whole entry): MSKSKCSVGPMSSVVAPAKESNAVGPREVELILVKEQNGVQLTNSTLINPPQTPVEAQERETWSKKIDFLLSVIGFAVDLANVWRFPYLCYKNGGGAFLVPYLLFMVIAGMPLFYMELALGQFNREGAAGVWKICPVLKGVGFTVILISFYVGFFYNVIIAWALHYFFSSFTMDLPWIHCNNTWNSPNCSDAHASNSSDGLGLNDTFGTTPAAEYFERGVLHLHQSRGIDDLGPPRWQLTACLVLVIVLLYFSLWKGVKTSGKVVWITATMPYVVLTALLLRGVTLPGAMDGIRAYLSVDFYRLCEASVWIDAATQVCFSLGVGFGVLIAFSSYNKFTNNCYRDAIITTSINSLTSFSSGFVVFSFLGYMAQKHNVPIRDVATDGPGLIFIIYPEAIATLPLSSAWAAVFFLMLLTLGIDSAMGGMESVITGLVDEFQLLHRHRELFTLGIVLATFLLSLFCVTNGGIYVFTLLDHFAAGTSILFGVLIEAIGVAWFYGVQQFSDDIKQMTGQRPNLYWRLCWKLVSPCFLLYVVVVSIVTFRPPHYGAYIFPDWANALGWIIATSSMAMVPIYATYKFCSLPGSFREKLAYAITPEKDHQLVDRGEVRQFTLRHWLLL
T5 sequence (P31652 whole entry): as the sequence (P31652 whole entry) above
T2 sequence (P23977 whole entry): as the sequence (P23977 whole entry) above

| NET binding/DAT binding (rat NET) | Structure (SMILES) | Blockade of NET, in words (NET) | other results |
| --- | --- | --- | --- |
|  | COc1ccc(CN[C@H]2C[C@H](C(c3ccccc3)c3ccccc3)OC[C@H]2O)cc1 (as salt: oxalate) [(+)-29g, (3S,4S,6R)-6-benzhydryl-4-(4-methoxy-benzylamino)-tetrahydro-pyran-3-ol] |  | melting point: 235 to 237 °C |
|  | O[C@@H]1CO[C@@H](C(c2ccccc2)c2ccccc2)C[C@@H]1NCc1ccccc1 (as salt: oxalate) [(+)-29h, (3S,4S,6R)-6-benzhydryl-4-benzylamino-tetrahydropyran-3-ol] |  | melting point: 259 to 260 °C |
|  | O[C@@H]1CO[C@H](C(c2ccccc2)c2ccccc2)C[C@H]1NCc1ccccc1 (as salt: oxalate) [(−)-29h, (3S,4R,6S)-6-benzhydryl-4-benzylamino-tetrahydropyran-3-ol] |  | melting point: 259 to 260 °C |
|  | Oc1ccc(CN[C@H]2CC[C@@H](C(c3ccccc3)c3ccccc3)OC2)cc1 (relative stereo) (as salt: oxalate) [Compound 16h, Cis-(6-benzhydryl-tetrahydropyran-3-yl)-(4-hydroxy-benzyl)-amine] |  | melting point: 136 to 138 °C |
| 3.9 | Fc1ccc(CN[C@H]2CCO[C@@H](C(c3ccccc3)c3ccccc3)C2)cc1 (relative stereo) [Compound 7a, cis-(2-benzhydryl-tetrahydropyran-4-yl)-(4-fluorobenzyl)-amine] |  |  |
|  | N[C@H]1CC[C@@H](C(c2ccccc2)c2ccccc2)OC1 (relative stereo) [Compound 15, Cis-(6-benzhydryl-tetrahydropyran-3-yl)-amine] |  | Activity at the DAT, in words (rat DAT): little or no activity at the DAT |
| 1.4 | Fc1ccc(CN[C@H]2CC[C@@H](C(c3ccccc3)c3ccccc3)OC2)cc1 (relative stereo) [Compound 16b, Cis-(6-benzhydryl-tetrahydropyran-3-yl)-(4-fluoro-benzyl)-amine] |  |  |
|  | O=[N+]([O-])c1ccc(CN[C@H]2CC[C@@H](C(c3ccccc3)c3ccccc3)OC2)cc1 (relative stereo) [Compound 16d, Cis-(6-benzhydryl-tetrahydropyran-3-yl)-(4-nitro-benzyl)-amine] |  | Potency in inhibiting binding versus uptake, in words (DAT): three fold higher potency in inhibiting binding than uptake |
| 0.36 | Clc1ccc(CN[C@H]2CC[C@@H](C(c3ccccc3)c3ccccc3)OC2)cc1Cl (relative stereo) [Compound 16i, Cis-(6-benzhydryl-tetrahydropyran-3-yl)-(3,4-dichloro-benzyl)-amine] |  |  |
| 1.9 | Fc1ccc(CN[C@H]2CC[C@@H](C(c3ccccc3)c3ccccc3)OC2)cc1F (relative stereo) [Compound 16j, Cis-(6-benzhydryl-tetrahydropyran-3-yl)-(3,4-difluoro-benzyl)-amine] |  |  |
| 0.90 | c1ccc(CN[C@H]2CC[C@@H](C(c3ccccc3)c3ccccc3)OC2)cc1 (relative stereo) [Compound 16k, Cis-(6-benzhydryl-tetrahydropyran-3-yl)-benzyl-amine] |  |  |
| 0.73 | Ic1ccc(CN[C@H]2CC[C@@H](C(c3ccccc3)c3ccccc3)OC2)cc1 (relative stereo) [Compound 16m, Cis-(6-benzhydryl-tetrahydropyran-3-yl)-(4-iodo-benzyl)-amine] |  |  |
|  | Oc1ccc(CN[C@H]2CO[C@@H](C(c3ccccc3)c3ccccc3)C[C@@H]2O)cc1 [(+)-32a, (2R,4S,5S)-2-benzhydryl-5-(4-hydroxy-benzylamino)-tetrahydro-pyran-4-ol] | selective blockers for NET |  |
|  | Oc1ccc(CN[C@@H]2CC[C@H](C(c3ccccc3)c3ccccc3)OC2)cc1 [(+)-37a, cis-(3R,6R)-(6-benzhydryl-tetrahydropyran-3-yl)-(4-hydroxy-benzyl)-amine] | selective blockers for NET |  |
|  | COc1ccc(CN[C@@H]2CO[C@H](C(c3ccccc3)c3ccccc3)C[C@H]2O)cc1 [(−)-29a, (2S,4R,5R)-2-benzhydryl-5-(4-methoxy-benzylamino)-tetrahydropyran-4-ol] | potent blockers | Blockade of SERT, in words (SERT): potent blockers |
|  | O[C@@H]1C[C@@H](C(c2ccccc2)c2ccccc2)OC[C@H]1NCc1ccc(F)cc1 [(−)-29b, (2S,4R,5R)-2-benzhydryl-5-(4-fluoro-benzylamino)-tetrahydro-pyran-4-ol] | selective blockers for NET |  |
|  | O[C@@H]1C[C@@H](C(c2ccccc2)c2ccccc2)OC[C@H]1NCc1ccccc1 [(−)-29d, (2S,4R,5R)-2-benzhydryl-5-benzylamino-tetrahydro-pyran-4-ol] | selective blockers for NET |  |
|  | COc1ccc(CN[C@@H]2CO[C@H](C(c3ccccc3)c3ccccc3)C[C@H]2O)c(OC)c1 [(−)-29e, (2S,4R,5R)-2-benzhydryl-5-(2,4-dimethoxy-benzylamino)-tetrahydropyran-4-ol] | potent blockers | Blockade of SERT, in words (SERT): potent blockers |
|  | COc1cc(CN[C@@H]2CO[C@H](C(c3ccccc3)c3ccccc3)C[C@H]2O)cc(OC)c1 [(−)-29f, (2S,4R,5R)-2-benzhydryl-5-(3,5-dimethoxy-benzylamino)-tetrahydropyran-4-ol] | potent blockers | Blockade of SERT, in words (SERT): potent blockers |
|  | Oc1ccc(CN[C@@H]2CO[C@H](C(c3ccccc3)c3ccccc3)C[C@H]2O)cc1 [(−)-32a, (2S,4R,5R)-2-benzhydryl-5-(4-hydroxy-benzylamino)-tetrahydropyran-4-ol] | selective blockers for NET |  |
|  | O[C@@H]1C[C@@H](C(c2ccccc2)c2ccccc2)OC[C@H]1NCc1ccc2[nH]ccc2c1 [(−)-32b, (2S,4R,5R)-2-benzhydryl-5-[(1H-indol-5-ylmethyl)-amino]-tetrahydropyran-4-ol] | potent blockers | Blockade of SERT, in words (SERT): potent blockers |
|  | Oc1ccc(CN[C@H]2CC[C@@H](C(c3ccccc3)c3ccccc3)OC2)cc1 [(−)-37a, cis-(3S,6S)-(6-benzhydryl-tetrahydropyran-3-yl)-(4-hydroxy-benzyl)-amine] | potent blockers | Blockade of SERT, in words (SERT): potent blockers |
|  | c1ccc(CN[C@H]2CC[C@@H](C(c3ccccc3)c3ccccc3)NC2)cc1 [Compound 1a, reference compound] |  | IC50 (rat DAT): 114 nM; IC50 (rat SERT): 2130 ± 110 nM |
| 2.3 | c1ccc(C(c2ccccc2)C2CCC(NCc3c[nH]c4ccccc34)CO2)cc1 (stereo not drawn) [Compound 16f, Cis-(6-benzhydryl-tetrahydropyran-3-yl)-(3-indole-methyl)-amine] |  |  |
| 1.8 | c1ccc(C(c2ccccc2)C2CCC(NCc3cc4ccccc4[nH]3)CO2)cc1 (stereo not drawn) [Compound 16g, Cis-(6-benzhydryl-tetrahydropyran-3-yl)-(2-indole-methyl)-amine] |  | Fold more active at DAT compared to 16f (rat DAT; DAT binding, 227 vs. 794 nM): 3.5 fold |

| Structure (SMILES) | NET binding/DAT binding (rat NET) | Blockade of NET, in words (NET) | other results |
| --- | --- | --- | --- |
| c1ccc(C(c2ccccc2)[C@@H]2CC[C@H](NCc3ccc4[nH]ccc4c3)CO2)cc1 (relative stereo) [Compound 16n, Cis-(6-benzhydryl-tetrahydropyran-3-yl)-(1H-iodo-5-ylmethyl)-amine] | 0.09 |  |  |
